PMC10489748, “The Anti-Breast Cancer Stem Cell Potency of Copper(I)-Non-Steroidal Anti-Inflammatory Drug Complexes” (Molecules, 2023)
Like-named read-outs stand apart in the source and are kept apart here.

Legend:
[1] = test system: HMLER cells; details: 72 h incubation, cited from earlier work
[2] = test system: HMLER-shEcad mammospheres; parameters: method as in PMID 26806362, PMID 31588328, PMID 28932846, PMID 31209956; details: 120 h incubation, ref [14],[37],[39],[40], read-out: Mammosphere IC50; cited from earlier work
[3] = test system: HMLER-shEcad cells; details: 72 h incubation, cited from earlier work
[4] = test system: HMLER cells; assay: MTT cytotoxicity assay, bulk breast cancer cells; type: cell-based, human; details: 72 h incubation
Protocol: (§1) Exponentially growing cells were seeded at a density of approximately 5 × 10^3 cells per well in 96-well flat-bottomed microplates, and allowed to attach for 24 h prior to the addition of compounds. […] Stock solutions of the compounds were prepared as 10 mM DMSO solutions, and diluted using cell media. […] After 72 h, 20 μL of MTT (4 mg mL^−1 in PBS) was added to each well, and the plates were incubated for an additional 4 h at 37 °C. The media/MTT mixture was eliminated, and DMSO (100 μL per well) was added to dissolve the formazan precipitates. […] Absorbance values were normalised to (DMSO-containing) control wells, and plotted as concentration of compound versus % cell viability. IC50 values were interpolated from the resulting dose-dependent curves.

[5] = test system: BEAS-2B cells; assay: MTT cytotoxicity assay, non-cancerous bronchial epithelium cells; type: cell-based; details: 72 h incubation
Protocol: Exponentially growing cells were seeded at a density of approximately 5 × 10^3 cells per well in 96-well flat-bottomed microplates, and allowed to attach for 24 h prior to the addition of compounds. Various concentrations of the test compounds (0.19–100 μM) were added, and the plates were incubated for 72 h at 37 °C (total volume 200 μL). Stock solutions of the compounds were prepared as 10 mM DMSO solutions, and diluted using cell media. The final concentration of DMSO in each well was ≤1 %. After 72 h, 20 μL of MTT (4 mg mL^−1 in PBS) was added to each well, and the plates were incubated for an additional 4 h at 37 °C. The media/MTT mixture was eliminated, and DMSO (100 μL per well) was added to dissolve the formazan precipitates. The optical density was measured at 550 nm, using a 96-well multiscanner autoreader. Absorbance values were normalised to (DMSO-containing) control wells, and plotted as concentration of compound versus % cell viability. IC50 values were interpolated from the resulting dose-dependent curves.

[6] = test system: HMLER-shEcad cells; assay: Intracellular ROS assay (DCFH-DA); type: cell-based, human; details: 2 × IC50 value
Protocol: HMLER-shEcad cells (5 × 10^3) were seeded in each well of a 96-well plate. […] The intracellular ROS level was determined via measurement of the fluorescence of the solutions in each well at 529 nm (λex = 504 nm).

[7] = test system: HMLER-shEcad cells; assay: MTT cytotoxicity assay, breast CSCs; type: cell-based, human; details: 72 h incubation
Protocol: as §1

[8] = test system: HMLER-shEcad mammospheres; assay: Mammosphere viability assay (TOX8); type: cell-based, human; details: TOX8, 120 h incubation
Protocol: HMLER-shEcad cells (5 × 10^3) were plated in ultralow-attachment 96-well plates (Corning) and incubated in MEGM supplemented with B27 (Invitrogen), 20 ng mL^−1 EGF, and 4 μg mL^−1 heparin (Sigma), for 5 days. Studies were also conducted in the presence of 1–3, cisplatin and salinomycin (0–133 µM). Mammospheres treated with 1–3, cisplatin, and salinomycin (0.5 µM, 5 days) were counted and imaged, using an inverted microscope. The viability of the mammospheres was determined via the addition of a resazurin-based reagent, TOX8 (Sigma). After incubation for 16 h, the fluorescence of the solutions was read at 590 nm (λex = 560 nm). Viable mammospheres reduce the amount of the oxidised TOX8 form (blue) and, concurrently, increase the amount of the fluorescent TOX8 intermediate (red), indicating the degree of mammosphere cytotoxicity caused by the test compound. Fluorescence values were normalised to DMSO-containing controls, and plotted as concentration of test compound versus % mammospheres viability. IC50 values were interpolated from the resulting dose-dependent curves. The reported IC50 values are the average of two independent experiments, each consisting of two replicates per concentration level (n = 4).

[9] = Water–octanol partition coefficient (LogP), shake-flask method and ICP-MS; type: physicochemical; details: water/1-octanol, room temperature, 24 h
Protocol: The 1-octanol used in this experiment was pre-saturated with water. […] The tube was shaken at room temperature for 24 h. The two phases were separated via centrifugation, and the copper content in the water phase was determined via ICP-MS.

[10] = ref [1,2] of the SI (Eskandari et al. 2016; Eskandari, Suntharalingam 2019)

For `N.N.[Cl][Pt][Cl]` [cisplatin], the IC50 ([1]; ref [14],[37],[39],[40]) is given as 2.57 ± 0.02 µM, the IC50 [2] is given as 13.5 ± 2.34 µM and the IC50 ([3]; ref [14],[37],[39],[40]) is given as 5.65 ± 0.3 µM.

In the case of `O=C([O-])Cc1ccccc1Nc1c(Cl)cccc1Cl.[Cu+].c1ccc(P(c2ccccc2)c2ccccc2)cc1.c1ccc(P(c2ccccc2)c2ccccc2)cc1` [compound 1, [Cu^I(diclofenac)(PPh3)2]], the IC50 [4] is reported as 2.42 ± 0.1 µM, the IC50 [5] is reported as 4.32 ± 0.13 µM and the “Increase in ROS levels compared to untreated control cells” value ([6]; 1 h exposure) is reported as 76%. The “Change of intracellular ROS status” value ([6]; exposure beyond 1 h (3–24 h)) was “did not markedly alter”, the IC50 [7] was 4.61 ± 0.18 µM and the IC50 [8] was 18.2 ± 2.02 µM.

For `COc1ccc2cc(C(C)C(=O)[O-])ccc2c1.[Cu+].c1ccc(P(c2ccccc2)c2ccccc2)cc1.c1ccc(P(c2ccccc2)c2ccccc2)cc1` [compound 2, [Cu^I(naproxen)(PPh3)2]], the IC50 [4] was 2.36 ± 0.03 µM, the IC50 [5] was 4.11 ± 0.001 µM and the “Increase in ROS levels” value ([6]; 16 h exposure) was 41%. The “Increase in ROS levels” value ([6]; 24 h exposure) was 32%, the IC50 [7] was 4.46 ± 0.08 µM and the IC50 [8] was 11.8 ± 0.7 µM.

In the case of `O=C([O-])c1ccccc1O.[Cu+].c1ccc(P(c2ccccc2)c2ccccc2)cc1.c1ccc(P(c2ccccc2)c2ccccc2)cc1` [compound 3, [Cu^I(salicylate)(PPh3)2]], the IC50 [4] is reported as 2.13 ± 0.002 µM, the IC50 [5] is reported as 3.53 ± 0.21 µM and the “Increase in ROS levels” value ([6]; 16 h exposure) is reported as 191%. The “Increase in ROS levels” value ([6]; 24 h exposure) was 75%, the IC50 [7] was 4.55 ± 0.001 µM and the LogP [9] was 0.82 ± 0.002. It also gave an IC50 [8] of 13.6 ± 0.74 µM.

For `O=C(O)Cc1ccccc1Nc1c(Cl)cccc1Cl` [diclofenac], the IC50 [1, 10] is given as 69.5 ± 8.7 µM and the IC50 [3, 10] is given as 54.74 ± 0.23 µM.

For `COc1ccc2cc([C@H](C)C(=O)O)ccc2c1` [naproxen], the IC50 [1, 10] is given as > 100 µM and the IC50 [3, 10] is given as > 100 µM.

In the case of `CC[C@@H](C(=O)[C@@H](C)[C@@H](O)[C@H](C)[C@@H]1O[C@@H]([C@@H](CC)C(=O)O)CC[C@@H]1C)[C@H]1O[C@]2(C=C[C@@H](O)[C@]3(CC[C@@](C)([C@H]4CC[C@](O)(CC)[C@H](C)O4)O3)O2)[C@H](C)C[C@@H]1C` [salinomycin], the IC50 ([1]; ref [14],[37],[39],[40]) is listed as 11.4 ± 0.42 µM, the IC50 [2] is listed as 18.5 ± 1.5 µM and the IC50 ([3]; ref [14],[37],[39],[40]) is listed as 4.23 ± 0.35 µM.
